Assay results from ChEMBL document CHEMBL3822373, “An evolved oxazolidinone with selective potency against Mycobacterium tuberculosis and gram positive bacteria” (2016).
Calls of active or inactive are those of the source. No cut-off for these calls is given here.

System: Mycobacterium tuberculosis
Test: Antibacterial activity against Mycobacterium tuberculosis H37Rv assessed as frequency of spontaneous resistant mutant at 5 and 10 times MIC90 measured after 5 weeks
Assay type: functional, organism-based

In the case of `CC(=O)NC[C@H]1CN(c2ccc3c(c2)Oc2ccccc2O3)C(=O)O1`, the Activity is reported as “inactive”.
